A word on the IC50: it is the concentration that gives 50% inhibition.

The structures appear in SMILES notation.

The values below come from patent publication US20260070899A1, “N-(2-(4-CYANOTHIAZOLIDIN-3-YL)-2-OXOETHYL)-QUINOLINE-4-CARBOXAMIDES” (AstraZeneca AB, priority 2022, published 2026).

The assay addresses T1, Prolyl endopeptidase, Prolyl Oligopeptidase (hPREP) (Homo sapiens, UniProt P48147).
T1 sequence (P48147 1-710): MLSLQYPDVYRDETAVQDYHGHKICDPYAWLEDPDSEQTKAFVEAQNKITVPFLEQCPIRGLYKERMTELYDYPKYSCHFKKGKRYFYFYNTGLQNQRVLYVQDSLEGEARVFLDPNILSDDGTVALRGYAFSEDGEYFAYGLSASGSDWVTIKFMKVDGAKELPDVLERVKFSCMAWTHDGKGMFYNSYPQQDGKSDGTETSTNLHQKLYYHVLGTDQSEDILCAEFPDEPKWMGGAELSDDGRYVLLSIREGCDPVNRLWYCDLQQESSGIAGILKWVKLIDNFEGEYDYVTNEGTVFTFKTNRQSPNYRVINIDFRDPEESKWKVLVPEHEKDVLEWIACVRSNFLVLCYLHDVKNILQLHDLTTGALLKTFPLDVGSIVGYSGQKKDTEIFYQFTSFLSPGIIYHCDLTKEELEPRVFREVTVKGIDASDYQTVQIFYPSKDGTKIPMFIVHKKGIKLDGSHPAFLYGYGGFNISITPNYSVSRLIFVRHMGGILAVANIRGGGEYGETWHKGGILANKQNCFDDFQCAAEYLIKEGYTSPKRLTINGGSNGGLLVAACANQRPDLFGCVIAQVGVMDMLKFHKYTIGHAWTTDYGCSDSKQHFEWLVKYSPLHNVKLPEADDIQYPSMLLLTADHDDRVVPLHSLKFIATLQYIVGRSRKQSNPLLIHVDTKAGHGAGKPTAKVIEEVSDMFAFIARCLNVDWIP
Description: biochemical.
Description: Compounds were tested in a biochemical inhibition assay using Prolyl endopeptidase, Prolyl Oligopeptidase (hPREP) enzyme at 0.6 nM FAC (R&D Systems, 4308-SE) and the substrate Z-Gly-Pro-amino-methylcoumarin (Bachem, I-1145) at 50 μM FAC. 384 Low volume black plates (Greiner #784076) were used. […] Plates were incubated for 15 min at rt in dark. 4 μL, 100 μM substrate solution (25 mM Tris HCl, 250 mM NaCl, 0.01% Triton X-100, 5 mM Glutathione, pH 7.5) was added to each well. Plates were centrifuged at 1000 rpm and incubated for 20 min at rt in dark. The plates were read on a PHERAstar® reader with excitation 340 nm and emission 460 nm. Data were analyzed in Genedata Screener®. IC50 values were determined by plotting % inhibition versus log compound concentration and using a one site dose response model.
Molecule `CC1(C)CC(Oc2ccc3nccc(C(=O)NCC(=O)N4CSC[C@H]4C#N)c3c2)CCO1` (mixture of isomers) [Example 9, N-(2-((R)-4-Cyanothiazolidin-3-yl)-2-oxoethyl)-6-(((RS)-2,2-dimethyltetrahydro-2H-pyran-4-yl)oxy)quinoline-4-carboxamide] showed an IC50 of 870 nM.

The molecule `N#C[C@@H]1CSCN1C(=O)CNC(=O)c1ccnc2ccc(COC3CCOC3)cc12` (mixture of isomers) [Example 35, N-(2-((R)-4-Cyanothiazolidin-3-yl)-2-oxoethyl)-6-((((RS)-tetrahydrofuran-3-yl)oxy)methyl)quinoline-4-carboxamide] registered an IC50 of 460 nM.

For `N#C[C@@H]1CSCN1C(=O)CNC(=O)c1ccnc2ccc([C@H]3CC[C@H](C#N)CC3)cc12` (single isomer, unassigned) [Example 54, 6-((1r,4R*)-4-Cyanocyclohexyl)-N-(2-((R)-4-cyanothiazolidin-3-yl)-2-oxoethyl)quinoline-4-carboxamide], the IC50 amounted to 620 nM.

Molecule `N#C[C@@H]1CSCN1C(=O)CNC(=O)c1ccnc2ccc([C@H]3CC[C@H](C#N)CC3)cc12` (single isomer, unassigned) [Example 55, 6-((1r,4R*)-4-Cyanocyclohexyl)-N-(2-((R)-4-cyanothiazolidin-3-yl)-2-oxoethyl)quinoline-4-carboxamide] had an IC50 of 330 nM.

Take `CO[C@H]1CC[C@@H](c2ccc3nccc(C(=O)NCC(=O)N4CSC[C@H]4C#N)c3c2)CC1` (single isomer, unassigned) [Example 79, N-(2-((R)-4-Cyanothiazolidin-3-yl)-2-oxoethyl)-6-((1r,4R*)-4-methoxycyclohexyl)quinoline-4-carboxamide]: the midpoint of inhibition, the IC50, lay at 610 nM.

`N#C[C@@H]1CSCN1C(=O)CNC(=O)c1ccnc2ccc(OCC3CC3)cc12` [Example 5, (R)—N-(2-(4-Cyanothiazolidin-3-yl)-2-oxoethyl)-6-(cyclopropyl-methoxy)quinoline-4-carboxamide] returned an IC50 of 400 nM.

Regarding `N#CCOc1ccc2nccc(C(=O)NCC(=O)N3CSC[C@H]3C#N)c2c1` [Example 10, (R)-6-(Cyanomethoxy)-N-(2-(4-cyanothiazolidin-3-yl)-2-oxoethyl)quinoline-4-carboxamide], the IC50 was found to be 32 nM.

`CC(F)(F)COc1ccc2nccc(C(=O)NCC(=O)N3CSC[C@H]3C#N)c2c1` [Example 11, (R)—N-(2-(4-Cyanothiazolidin-3-yl)-2-oxoethyl)-6-(2,2-difluoropropoxy)quinoline-4-carboxamide] had an IC50 of 290 nM.

Molecule `CCOCc1ccc2nccc(C(=O)NCC(=O)N3CSC[C@H]3C#N)c2c1` [Example 27, (R)—N-(2-(4-cyanothiazolidin-3-yl)-2-oxoethyl)-6-(ethoxymethyl)-quinoline-4-carboxamide] yielded an IC50 of 140 nM.

As to `N#C[C@@H]1CSCN1C(=O)CNC(=O)c1ccnc2ccc(COCC(F)F)cc12` [Example 36, (R)—N-(2-(4-Cyanothiazolidin-3-yl)-2-oxoethyl)-6-((2,2-difluoroethoxy)methyl)quinoline-4-carboxamide], the IC50 stood at 170 nM.

As to `N#C[C@@H]1CSCN1C(=O)CNC(=O)c1ccnc2ccc(COC3CC3)cc12` [Example 37, (R)—N-(2-(4-Cyanothiazolidin-3-yl)-2-oxoethyl)-6-(cyclopropoxy-methyl)quinoline-4-carboxamide], the IC50 worked out at 170 nM.

The molecule `Cc1cc(C2(c3ccc4nccc(C(=O)NCC(=O)N5CSC[C@H]5C#N)c4c3)CC2)on1` [Example 50, (R)—N-(2-(4-Cyanothiazolidin-3-yl)-2-oxoethyl)-6-(1-(3-methylisoxazol-5-yl)cyclopropyl)quinoline-4-carboxamide] registered a half-maximal inhibitory concentration (IC50) of 130 nM.

Take `N#C[C@@H]1CSCN1C(=O)CNC(=O)c1ccnc2ccc(CC3CCOCC3)cc12` [Example 56, (R)—N-(2-(4-Cyanothiazolidin-3-yl)-2-oxoethyl)-6-((tetrahydro-2H-pyran-4-yl)methyl)quinoline-4-carboxamide]: the IC50 is 500 nM.
